Measurements from patent US8053603B2, “Tetralone-based monoamine reuptake inhibitors” (Sunovion Pharmaceuticals Inc., priority 2006, dated 2011).
Read-outs that look alike come from different tables or passages of the source. One block for each compound: values may come before it.

How the values were obtained:
Assay type in all cases: cell-based
[1] = molecular target: T1, recombinant human serotonin transporter (Homo sapiens, UniProt P31645); assay: Serotonin functional uptake assay for human reuptake transporter; settings: [3H]serotonin uptake, HEK-293 cells expressing human serotonin transporter; read-out: Human IC50 (nM) SERT
T1 construct: expressed in transfected cells; host or cells: HEK-293
Method: Serotonin Functional Uptake Assay for Human Reuptake Transporter
HEK-293 cells expressing human serotonin transporter were plated before the assay. […] Cells with internalized [^3H]serotonin were washed and the amount of tritium taken into cells is counted using a liquid scintillation counter to determine [^3H]serotonin uptake.

[2] = molecular target: T2, recombinant human norepinephrine transporter (Homo sapiens, UniProt P23975); assay: Norepinephrine functional uptake assay for human reuptake transporter; settings: [3H]norepinephrine uptake, HEK293 or MDCK cells expressing human norepinephrine transporter
T2 construct: expressed in transfected cells; host or cells: HEK293 or MDCK
Method: Norepinephrine Functional Uptake Assay for Human Reuptake Transporter
The cells were plated before the assay. Test compound and/or vehicle was preincubated with cells in modified HEPES buffer pH 7.1 or pH 7.4 for 20 minutes at 18 to 25° C. . […] After the cells were washed to remove [^3H]norepinephrine not internalized, the cells were lysed, and the amount of tritium in the cell lysate was measured using a liquid scintillation counter to determine [^3H]norepinephrine uptake. Non-specific binding of tritium was measured in a control reaction containing 10 μM imipramine (or 10 μM nisoxetine), and was subtracted from the counts for assays to correct for non-specific binding of tritium. Reduction of [^3H]norepinephrine uptake by 50 percent or more (≧50%) relative to an uninhibited control reaction indicates significant inhibitory activity.

[3] = molecular target: T3, recombinant human dopamine transporter (Homo sapiens, UniProt Q01959); assay: Dopamine functional uptake assay for human reuptake transporter; settings: [3H]dopamine uptake, CHO-K1 or HEK293 cells expressing human dopamine transporter; read-out: Human IC50 (nM) DAT
T3 construct: expressed in transfected cells; host or cells: CHO-K1 or HEK293
Method: Dopamine Functional Uptake Assay for Human Reuptake Transporter
Either CHO-K1 or HEK293 cells expressing human recombinant dopamine transporter were plated before the assay. Test compound and/or vehicle was preincubated with cells in modified HEPES buffer pH 7.1 or pH 7.4 for 20 minutes at 18 to 25° C. and 50 nM [^3H]dopamine was then added for an additional timed incubation period (10 to 30 minutes). After washing the cells to remove [^3H]dopamine not internalized, the cells were lysed, and the amount of tritium in the lysate was measured using a liquid scintillation counter to determine [^3H]dopamine uptake. Non-specific binding of tritium was measured in a control reaction containing 10 μM nomifensine, and was subtracted from the counts for assays to correct for non-specific binding of tritium. Reduction of [^3H]dopamine uptake by 50 percent or more (≧50%) relative to an uninhibited control reaction indicates significant inhibitory activity.

T3 sequence (Q01959 whole entry): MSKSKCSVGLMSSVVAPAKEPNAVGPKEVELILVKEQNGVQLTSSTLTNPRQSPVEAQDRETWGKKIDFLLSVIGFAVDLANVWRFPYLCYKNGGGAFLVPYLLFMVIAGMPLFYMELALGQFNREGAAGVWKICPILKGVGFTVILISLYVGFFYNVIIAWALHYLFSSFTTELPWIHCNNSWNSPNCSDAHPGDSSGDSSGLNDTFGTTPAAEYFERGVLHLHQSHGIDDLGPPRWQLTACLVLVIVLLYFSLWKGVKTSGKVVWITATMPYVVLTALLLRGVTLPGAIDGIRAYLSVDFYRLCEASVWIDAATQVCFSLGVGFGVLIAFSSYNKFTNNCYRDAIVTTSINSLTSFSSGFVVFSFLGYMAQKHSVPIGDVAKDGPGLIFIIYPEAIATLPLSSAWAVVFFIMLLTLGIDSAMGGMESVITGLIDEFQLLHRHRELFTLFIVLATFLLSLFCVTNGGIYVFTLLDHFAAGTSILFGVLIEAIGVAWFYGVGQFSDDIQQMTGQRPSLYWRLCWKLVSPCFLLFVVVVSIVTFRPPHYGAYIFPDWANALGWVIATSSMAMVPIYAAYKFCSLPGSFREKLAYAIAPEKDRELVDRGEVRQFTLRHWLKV
T1 sequence (P31645 whole entry): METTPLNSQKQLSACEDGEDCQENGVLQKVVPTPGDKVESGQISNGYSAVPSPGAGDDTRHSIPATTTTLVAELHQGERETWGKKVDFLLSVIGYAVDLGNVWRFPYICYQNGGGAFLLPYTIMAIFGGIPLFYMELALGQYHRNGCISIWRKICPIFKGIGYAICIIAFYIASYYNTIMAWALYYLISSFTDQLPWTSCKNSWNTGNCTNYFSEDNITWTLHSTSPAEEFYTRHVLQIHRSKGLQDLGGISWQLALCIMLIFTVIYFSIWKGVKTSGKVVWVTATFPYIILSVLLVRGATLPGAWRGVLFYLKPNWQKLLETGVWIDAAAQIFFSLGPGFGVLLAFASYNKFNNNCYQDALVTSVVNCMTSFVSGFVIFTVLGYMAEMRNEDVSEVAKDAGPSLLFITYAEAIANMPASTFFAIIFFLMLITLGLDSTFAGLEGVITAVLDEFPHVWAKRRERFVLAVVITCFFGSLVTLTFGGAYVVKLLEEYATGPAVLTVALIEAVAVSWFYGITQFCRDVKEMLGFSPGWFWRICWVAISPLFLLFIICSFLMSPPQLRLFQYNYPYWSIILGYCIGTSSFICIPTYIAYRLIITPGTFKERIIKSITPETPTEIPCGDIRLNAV
T2 sequence (P23975 whole entry): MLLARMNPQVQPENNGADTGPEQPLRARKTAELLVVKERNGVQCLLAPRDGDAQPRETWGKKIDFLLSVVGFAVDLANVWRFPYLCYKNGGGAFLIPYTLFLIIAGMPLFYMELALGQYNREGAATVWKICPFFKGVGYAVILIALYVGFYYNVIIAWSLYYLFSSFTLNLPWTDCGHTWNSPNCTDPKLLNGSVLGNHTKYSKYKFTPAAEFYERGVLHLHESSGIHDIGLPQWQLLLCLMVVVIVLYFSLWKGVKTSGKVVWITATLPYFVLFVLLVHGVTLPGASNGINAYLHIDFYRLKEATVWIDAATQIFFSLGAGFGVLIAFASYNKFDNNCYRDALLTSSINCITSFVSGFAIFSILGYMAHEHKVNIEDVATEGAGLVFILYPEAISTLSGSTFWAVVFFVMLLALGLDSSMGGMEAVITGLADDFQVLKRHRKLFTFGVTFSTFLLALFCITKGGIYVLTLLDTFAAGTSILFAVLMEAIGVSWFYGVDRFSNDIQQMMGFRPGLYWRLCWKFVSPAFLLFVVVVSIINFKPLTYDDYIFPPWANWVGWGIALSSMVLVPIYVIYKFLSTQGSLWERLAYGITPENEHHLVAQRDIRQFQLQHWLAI

SMILES: CN[C@H]1Cc2ccc(OC)cc2[C@@H](c2ccc(Cl)c(Cl)c2)C1 (stereo in doubt) [Compound 32a.3, 4-(3,4-dichlorophenyl)-6-methoxy-N-methyl-1,2,3,4-tetrahydronaphthalen-2-amine]
- IC50 [1]: 4380 nM
- IC50 ([2]; read-out: Human IC50 (nM) NET): 1050 nM
- IC50 [3]: 1500 nM

SMILES: COc1ccc2c(c1)C(c1ccc(Cl)c(Cl)c1)CC(N(C)C)C2 (single isomer, unassigned) [Compound 33a.1, 4-(3,4-dichlorophenyl)-6-methoxy-N,N-dimethyl-2,3,4-tetrahydronaphthalen-2-amine]
- IC50 [1]: 475 nM
- IC50 ([2]; read-out: Human IC50 (nM) NET): 2310 nM
- IC50 [3]: 781 nM

SMILES: COc1ccc2c(c1)C[C@H](N(C)C)C[C@@H]2c1ccc(Cl)c(Cl)c1 (single isomer, unassigned) [Compound 33c.4, 4-(3,4-dichlorophenyl)-7-methoxy-N,N-dimethyl-1,2,3,4-tetrahydronaphthalen-2-amine]
- IC50 [1]: 92 nM
- IC50 ([2]; read-out: Human IC50 (nM) NET): 1900 nM
- IC50 [3]: 224 nM

SMILES: CC(N)C1=Cc2ccccc2[C@H](c2ccc(Cl)c(Cl)c2)C1 (single isomer, unassigned) [Compound 45]
- IC50 [1]: 876 nM
- IC50 ([2]; Human IC50 (nM) NET): 53 nM
- IC50 [3]: 174 nM

SMILES: CN[C@H]1Cc2cc(OC)ccc2[C@@H](c2ccc(Cl)c(Cl)c2)C1 (single isomer, unassigned) [Compound 32c.1, 4-(3,4-dichlorophenyl)-7-methoxy-N-methyl-1,2,3,4-tetrahydronaphthalen-2-amine]
- IC50 [1]: 68 nM
- IC50 ([2]; read-out: Human IC50 (nM) NET): 571 nM
- IC50 [3]: 18 nM

SMILES: CN[C@H]1Cc2ccc(OC)cc2[C@@H](c2ccc(Cl)c(Cl)c2)C1 (single isomer, unassigned) [Compound 32a.4, 4-(3,4-dichlorophenyl)-6-methoxy-N-methyl-1,2,3,4-tetrahydronaphthalen-2-amine]
- IC50 [1]: 958 nM
- IC50 ([2]; read-out: Human IC50 (nM) NET): 786 nM
- IC50 [3]: 1680 nM

SMILES: CN(C)C1CC(c2ccc(Cl)c(Cl)c2)c2ccccc2C1O (single isomer, unassigned) [Compound 23c, 4-(3,4-dichlorophenyl)-2-(dimethylamino)-1,2,3,4-tetrahydronaphthalen-1-ol]
- IC50 [1]: 2360 nM
- IC50 ([2]; Human IC50 (nM) NET): 36 nM
- IC50 [3]: 21 nM

SMILES: CN[C@H]1Cc2ccc(OC)cc2[C@@H](c2ccc(Cl)c(Cl)c2)C1 (single isomer, unassigned) [Compound 32a.1, 4-(3,4-dichlorophenyl)-6-methoxy-N-methyl-1,2,3,4-tetrahydronaphthalen-2-amine]
- IC50 [1]: 162 nM
- IC50 ([2]; read-out: Human IC50 (nM) NET): 1210 nM
- IC50 [3]: 1080 nM

SMILES: CN[C@@H]1Cc2cccc(OC)c2[C@H](c2ccc(Cl)c(Cl)c2)C1 (single isomer, unassigned) [Compound 32b.1, 4-(3,4-dichlorophenyl)-5-methoxy-N-methyl-1,2,3,4-tetrahydronaphthalen-2-amine]
- IC50 [1]: 359 nM
- IC50 ([2]; read-out: Human IC50 (nM) NET): 2330 nM
- IC50 [3]: 83 nM

SMILES: CN[C@H]1Cc2cc(OC)ccc2[C@@H](c2ccc(Cl)c(Cl)c2)C1 (stereo in doubt) [Compound 32c.3, 4-(3,4-dichlorophenyl)-7-methoxy-N-methyl-1,2,3,4-tetrahydronaphthalen-2-amine]
- IC50 [1]: 105 nM
- IC50 ([2]; read-out: Human IC50 (nM) NET): 198 nM
- IC50 [3]: 92 nM

SMILES: CN[C@H]1Cc2cc(OC)ccc2[C@@H](c2ccc(Cl)c(Cl)c2)C1 (single isomer, unassigned) [Compound 32c.2, 4-(3,4-dichlorophenyl)-7-methoxy-N-methyl-1,2,3,4-tetrahydronaphthalen-2-amine]
- IC50 [1]: 29 nM
- IC50 ([2]; read-out: Human IC50 (nM) NET): 112 nM
- IC50 [3]: 109 nM

SMILES: CN[C@H]1Cc2cc(OC)ccc2[C@@H](c2ccc(Cl)c(Cl)c2)C1 (single isomer, unassigned) [Compound 32c.4, 4-(3,4-dichlorophenyl)-7-methoxy-N-methyl-1,2,3,4-tetrahydronaphthalen-2-amine]
- IC50 [1]: 209 nM
- IC50 ([2]; read-out: Human IC50 (nM) NET): 111 nM
- IC50 [3]: 78 nM

SMILES: CN(C)[C@H]1CCc2ccccc2[C@H]1c1ccc(Cl)c(Cl)c1 (single isomer, unassigned) [Compound 37c, 1-(3,4-dichlorophenyl)-N,N-dimethyl-1,2,3,4-tetrahydronaphthalen-2-amine]
- IC50 [1]: 70 nM
- IC50 ([2]; read-out: Human IC50 (nM) NET): 1190 nM
- IC50 [3]: 284 nM

- IC50 [1]: 1700 nM
- IC50 ([2]; read-out: Human IC50 (nM) NET): 2840 nM
- IC50 [3]: 436 nM
SMILES: CC1C[C@@H](c2ccc(Cl)c(Cl)c2)c2ccccc2/C1=N\O (single isomer, unassigned) [Compound 58]

- IC50 [1]: 3180 nM
- IC50 ([2]; read-out: Human IC50 (nM) NET): 3890 nM
- IC50 [3]: 997 nM
SMILES: CC1C[C@@H](c2ccc(Cl)c(Cl)c2)c2ccccc2/C1=N\O (single isomer, unassigned) [Compound 57]

SMILES: COc1ccc2c(c1)C[C@H](N(C)C)C[C@@H]2c1ccc(Cl)c(Cl)c1 (single isomer, unassigned) [Compound 33c.3, 4-(3,4-dichlorophenyl)-7-methoxy-N,N-dimethyl-1,2,3,4-tetrahydronaphthalen-2-amine]
- IC50 [1]: 616 nM
- IC50 ([2]; read-out: Human IC50 (nM) NET): 906 nM
- IC50 [3]: 83 nM

SMILES: CN(C)[C@@H]1c2ccccc2CC[C@@H]1c1ccc(Cl)c(Cl)c1 (single isomer, unassigned) [Compound 41b, cis-2-(3,4-dichlorophenyl)-N,N-dimethyl-1,2,3,4-tetrahydronaphthalen-1-amine]
- IC50 [1]: 9740 nM
- IC50 ([2]; read-out: Human IC50 (nM) NET): > 10000 nM
- IC50 [3]: 1120 nM

SMILES: COc1ccc2c(c1)C[C@H](N(C)C)C[C@@H]2c1ccc(Cl)c(Cl)c1 (single isomer, unassigned) [Compound 33c.1, 4-(3,4-dichlorophenyl)-7-methoxy-N,N-dimethyl-1,2,3,4-tetrahydronaphthalen-2-amine]
- IC50 [1]: 24 nM
- IC50 ([2]; read-out: Human IC50 (nM) NET): 943 nM
- IC50 [3]: 194 nM

SMILES: CN(C)[C@@H]1c2ccccc2CC[C@@H]1c1ccc(Cl)c(Cl)c1 (single isomer, unassigned) [Compound 41a, cis-2-(3,4-dichlorophenyl)-N,N-dimethyl-1,2,3,4-tetrahydronaphthalen-1-amine]
- IC50 [1]: 3170 nM
- IC50 ([2]; read-out: Human IC50 (nM) NET): > 10000 nM
- IC50 [3]: 2280 nM

SMILES: CC(N)[C@@H]1Cc2ccccc2[C@H](c2ccc(Cl)c(Cl)c2)C1 (single isomer, unassigned) [Compound 52]
- IC50 [1]: 8 nM
- IC50 ([2]; Human IC50 (nM) NET): 122 nM
- IC50 [3]: 622 nM

SMILES: CN(C)[C@H]1CCc2ccccc2[C@H]1c1ccc(Cl)c(Cl)c1 (single isomer, unassigned) [Compound 37b, 1-(3,4-dichlorophenyl)-N,N-dimethyl-1,2,3,4-tetrahydronaphthalen-2-amine]
- IC50 [1]: 742 nM
- IC50 ([2]; read-out: Human IC50 (nM) NET): 499 nM
- IC50 [3]: 106 nM

SMILES: CC([C@@H]1Cc2ccccc2[C@H](c2ccc(Cl)c(Cl)c2)C1)N(C)C (single isomer, unassigned) [Compound 54]
- IC50 [1]: 815 nM
- IC50 ([2]; read-out: Human IC50 (nM) NET): 1700 nM
- IC50 [3]: 1900 nM

SMILES: CNC1c2ccccc2CCC1c1ccc(Cl)c(Cl)c1 (single isomer, unassigned) [Compound 40a, 2-(3,4-dichlorophenyl)-N-methyl-1,2,3,4-tetrahydronaphthalen-l-amine]
- IC50 [1]: 2470 nM
- IC50 ([2]; read-out: Human IC50 (nM) NET): > 10000 nM
- IC50 [3]: 3410 nM

SMILES: CN(C)[C@H]1CCc2ccccc2[C@H]1c1ccc(Cl)c(Cl)c1 (single isomer, unassigned) [Compound 37a, 1-(3,4-dichlorophenyl)-N,N-dimethyl-1,2,3,4-tetrahydronaphthalen-2-amine]
- IC50 [1]: 355 nM
- IC50 ([2]; read-out: Human IC50 (nM) NET): 2380 nM
- IC50 [3]: 235 nM

SMILES: CNC1c2ccccc2CCC1c1ccc(Cl)c(Cl)c1 (single isomer, unassigned) [Compound 40b, 2-(3,4-dichlorophenyl)-N-methyl-1,2,3,4-tetrahydronaphthalen-l-amine]
- IC50 [1]: 7720 nM
- IC50 ([2]; read-out: Human IC50 (nM) NET): > 10000 nM
- IC50 [3]: 1790 nM

SMILES: COc1ccc2c(c1)C[C@H](N(C)C)C[C@@H]2c1ccc(Cl)c(Cl)c1 (single isomer, unassigned) [Compound 33c.2, 4-(3,4-dichlorophenyl)-7-methoxy-N,N-dimethyl-1,2,3,4-tetrahydronaphthalen-2-amine]
- IC50 [1]: 8 nM
- IC50 ([2]; read-out: Human IC50 (nM) NET): 684 nM
- IC50 [3]: 67 nM

SMILES: CC([C@@H]1Cc2ccccc2[C@H](c2ccc(Cl)c(Cl)c2)C1)N(C)C (single isomer, unassigned) [Compound 53]
- IC50 [1]: 58 nM
- IC50 ([2]; read-out: Human IC50 (nM) NET): 399 nM
- IC50 [3]: 495 nM

SMILES: COc1ccc2c(c1)C(c1ccc(Cl)c(Cl)c1)CC(N(C)C)C2 (single isomer, unassigned) [Compound 33a.3, 4-(3,4-dichlorophenyl)-6-methoxy-N,N-dimethyl-2,3,4-tetrahydronaphthalen-2-amine]
- IC50 [1]: 207 nM
- IC50 ([2]; read-out: Human IC50 (nM) NET): 1170 nM
- IC50 [3]: 2290 nM
